These results are taken from US7507717B2 (Xenome Ltd., priority 2002, dated 2009).

Residues, ends and D or L forms follow the SMILES beside them.

T1 sequence (P23975 whole entry): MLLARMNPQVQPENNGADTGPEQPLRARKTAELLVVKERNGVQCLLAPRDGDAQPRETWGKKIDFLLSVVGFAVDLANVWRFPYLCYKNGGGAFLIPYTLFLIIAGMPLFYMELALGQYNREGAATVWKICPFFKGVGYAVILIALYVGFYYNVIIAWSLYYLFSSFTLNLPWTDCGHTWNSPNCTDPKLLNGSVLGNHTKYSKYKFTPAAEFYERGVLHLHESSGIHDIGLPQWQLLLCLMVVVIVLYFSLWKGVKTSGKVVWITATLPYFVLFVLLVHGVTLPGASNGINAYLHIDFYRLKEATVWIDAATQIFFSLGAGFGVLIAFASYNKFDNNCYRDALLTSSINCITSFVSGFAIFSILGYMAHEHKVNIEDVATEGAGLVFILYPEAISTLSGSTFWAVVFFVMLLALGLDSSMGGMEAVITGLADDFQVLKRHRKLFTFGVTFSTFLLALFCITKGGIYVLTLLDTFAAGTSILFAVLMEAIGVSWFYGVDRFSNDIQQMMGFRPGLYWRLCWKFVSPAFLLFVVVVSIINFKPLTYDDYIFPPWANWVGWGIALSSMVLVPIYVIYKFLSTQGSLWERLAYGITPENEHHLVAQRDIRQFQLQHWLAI

One assay addresses T1, human noradrenaline transporter (hNET) (Homo sapiens, UniProt P23975).
T1 construct: expressed in transfected cells; host or cells: COS-7 cells (ATCC), transient transfection with metafectene
Description: biochemical. It counts as binding.
Settings: not given
Turning to YNGVCCGYKDCHPC [compound 209], the “Av IC50 Displacement of 3H-nisoxetine from hNET” value (from here on “Av IC50 Displacement”) is reported as −2.00.
For the compound YNGVCCGYKLCEPC [compound 210], the “Av IC50 Displacement” value is −2.00.
As to YNGVCCGYYLCHPC [compound 212], the “Av IC50 Displacement” value is −2.00.

Staying with this assay, now noted: Av IC50 Displacement of 3H-nisoxetine from hNET.
As usually defined, the IC50 is the concentration needed to halve the response being measured. Low readings indicate inhibition by little substance, high ones a need for much substance. `CC[C@H](C)[C@H](NC(=O)CN)C(=O)N[C@@H](CC(C)C)C(=O)N[C@@H](CCCNC(=N)N)C(=O)N[C@@H](CC(N)=O)C(=O)NCC(=O)N[C@H](C(=O)N[C@H]1CSSC[C@@H](C(N)=O)NC(=O)[C@@H]2CCCN2C(=O)[C@H](Cc2c[nH]cn2)NC(=O)[C@@H]2CSSC[C@H](NC1=O)C(=O)NCC(=O)N[C@@H](Cc1ccc(O)cc1)C(=O)N[C@@H](CCCCN)C(=O)N[C@@H](CC(C)C)C(=O)N2)C(C)C` [compound 105] (HELM PEPTIDE1{G.I.L.R.N.G.V.C.C.G.Y.K.L.C.H.P.C.[am]}$PEPTIDE1,PEPTIDE1,8:R3-17:R3|PEPTIDE1,PEPTIDE1,9:R3-14:R3$$$V2.0) had an IC50 of 759 nM.
Still for that read-out and setting: for `CC(C)[C@H](NC(=O)CNC(=O)[C@@H](N)CC(N)=O)C(=O)N[C@H]1CSSC[C@@H](C(N)=O)NC(=O)[C@@H]2CCCN2C(=O)[C@H](Cc2c[nH]cn2)NC(=O)[C@@H]2CSSC[C@H](NC1=O)C(=O)NCC(=O)N[C@@H](Cc1ccc(O)cc1)C(=O)N[C@@H](CCCCN)C(=O)N[C@@H](CCCCN)C(=O)N2` [compound 196] (HELM PEPTIDE1{N.G.V.C.C.G.Y.K.K.C.H.P.C.[am]}$PEPTIDE1,PEPTIDE1,4:R3-13:R3|PEPTIDE1,PEPTIDE1,5:R3-10:R3$$$V2.0) the value was 182000 nM; for `CC(C)C[C@@H]1NC(=O)[C@H](CCCCN)NC(=O)[C@H](Cc2ccc(O)cc2)NC(=O)CNC(=O)[C@@H]2CSSC[C@H](NC1=O)C(=O)N[C@@H](Cc1c[nH]cn1)C(=O)N[C@@H](Cc1ccccc1)C(=O)N[C@H](C(N)=O)CSSC[C@H](NC(=O)[C@@H](NC(=O)CNC(=O)[C@@H](N)CC(N)=O)C(C)C)C(=O)N2` [compound 155], 4070 nM.
Consider `CC(C)C[C@@H]1NC(=O)[C@H](CCCCN)NC(=O)[C@H](Cc2ccc(O)cc2)NC(=O)CNC(=O)[C@@H]2CSSC[C@H](NC1=O)C(=O)N[C@@H](Cc1c[nH]cn1)C(=O)N1CCC[C@H]1C(=O)N[C@H](C(N)=O)CSSC[C@H](NC(=O)[C@@H](NC(=O)CNC(=O)[C@@H](N)CC(=O)O)C(C)C)C(=O)N2` [compound 151], for which the IC50 was 3550 nM.
On the same count and under the same terms, for `CC(C)C[C@H](NC(=O)CNC(=O)[C@@H](N)CC(N)=O)C(=O)N[C@H]1CSSC[C@@H](C(N)=O)NC(=O)[C@@H]2CCCN2C(=O)[C@H](Cc2c[nH]cn2)NC(=O)[C@@H]2CSSC[C@H](NC1=O)C(=O)NCC(=O)N[C@@H](Cc1ccc(O)cc1)C(=O)N[C@@H](CCCCN)C(=O)N[C@@H](CC(C)C)C(=O)N2` [compound 97] the value was 501 nM.
The same measure, in the same setting: in the case of `CC(C)C[C@@H]1NC(=O)[C@H](CCCCN)NC(=O)[C@H](Cc2ccc(O)cc2)NC(=O)CNC(=O)[C@@H]2CSSC[C@H](NC1=O)C(=O)N[C@@H](Cc1c[nH]cn1)C(=O)N1CCC[C@H]1C(=O)N[C@H](C(N)=O)CSSC[C@H](NC(=O)[C@@H](NC(=O)[C@H](CC(=O)O)NC(=O)[C@@H](N)CC(N)=O)C(C)C)C(=O)N2` [compound 63] (HELM PEPTIDE1{N.D.V.C.C.G.Y.K.L.C.H.P.C.[am]}$PEPTIDE1,PEPTIDE1,4:R3-13:R3|PEPTIDE1,PEPTIDE1,5:R3-10:R3$$$V2.0) it was 191 nM.
`CC(C)C[C@H](NC(=O)CNC(=O)[C@H](CCCNC(=N)N)NC(=O)[C@@H](N)Cc1c[nH]c2ccccc12)C(=O)N[C@H]1CSSC[C@@H](C(N)=O)NC(=O)[C@H](C)NC(=O)[C@H](CCCNC(=N)N)NC(=O)[C@@H]2CSSC[C@H](NC1=O)C(=O)NCC(=O)N[C@@H](Cc1ccc(O)cc1)C(=O)N[C@@H](CCCCN)C(=O)N[C@@H](CC(C)C)C(=O)N2` [compound 78] showed an IC50 of 275 nM.
`CC(=O)N[C@@H](CC(N)=O)C(=O)NCC(=O)N[C@H](C(=O)N[C@H]1CSSC[C@@H](C(N)=O)NC(=O)[C@@H]2CCCN2C(=O)[C@H](Cc2c[nH]cn2)NC(=O)[C@@H]2CSSC[C@H](NC1=O)C(=O)NCC(=O)N[C@@H](Cc1ccc(O)cc1)C(=O)N[C@@H](CCCCN)C(=O)N[C@@H](CC(C)C)C(=O)N2)C(C)C` [compound 152] had an IC50 of 3630 nM.
The same measure, in the same setting: in the case of `CC(C)C[C@@H]1NC(=O)[C@H](CCCCN)NC(=O)[C@H](Cc2ccc(O)cc2)NC(=O)CNC(=O)[C@@H]2CSSC[C@H](NC1=O)C(=O)N[C@@H](CCCNC(=N)N)C(=O)N[C@@H](C)C(=O)N[C@H](C(N)=O)CSSC[C@H](NC(=O)[C@@H](NC(=O)CNC(=O)[C@H](CC(N)=O)NC(=O)[C@@H](N)Cc1ccc(O)cc1)C(C)C)C(=O)N2` [compound 81] it was 295 nM; in that of `CC(C)C[C@@H]1NC(=O)[C@H](Cc2ccccc2)NC(=O)[C@H](Cc2ccc(O)cc2)NC(=O)CNC(=O)[C@@H]2CSSC[C@H](NC1=O)C(=O)N[C@@H](Cc1c[nH]cn1)C(=O)N1CCC[C@H]1C(=O)N[C@H](C(N)=O)CSSC[C@H](NC(=O)[C@@H](NC(=O)CNC(=O)[C@H](CC(N)=O)NC(=O)[C@@H](N)Cc1ccc(O)cc1)C(C)C)C(=O)N2` [compound 179] (HELM PEPTIDE1{Y.N.G.V.C.C.G.Y.F.L.C.H.P.C.[am]}$PEPTIDE1,PEPTIDE1,5:R3-14:R3|PEPTIDE1,PEPTIDE1,6:R3-11:R3$$$V2.0), 25100 nM.
Regarding `CC[C@H](C)[C@H](NC(=O)CNC(=O)[C@@H](N)CC(N)=O)C(=O)N[C@H]1CSSC[C@@H](C(N)=O)NC(=O)[C@@H]2CCCN2C(=O)[C@H](Cc2c[nH]cn2)NC(=O)[C@@H]2CSSC[C@H](NC1=O)C(=O)NCC(=O)N[C@@H](Cc1ccc(O)cc1)C(=O)N[C@@H](CCCCN)C(=O)N[C@@H](CC(C)C)C(=O)N2` [compound 125] (HELM PEPTIDE1{N.G.I.C.C.G.Y.K.L.C.H.P.C.[am]}$PEPTIDE1,PEPTIDE1,4:R3-13:R3|PEPTIDE1,PEPTIDE1,5:R3-10:R3$$$V2.0), the IC50 was 1410 nM.
As to `CC(C)C[C@@H]1NC(=O)[C@H](Cc2ccc(O)cc2)NC(=O)CNC(=O)[C@@H]2CSSC[C@H](NC(=O)[C@H](CC(C)C)NC1=O)C(=O)N[C@@H](Cc1c[nH]cn1)C(=O)N1CCC[C@H]1C(=O)N[C@H](C(N)=O)CSSC[C@H](NC(=O)[C@@H](NC(=O)CNC(=O)[C@H](CC(N)=O)NC(=O)[C@@H](N)Cc1ccc(O)cc1)C(C)C)C(=O)N2` [compound 174] (HELM PEPTIDE1{Y.N.G.V.C.C.G.Y.L.L.C.H.P.C.[am]}$PEPTIDE1,PEPTIDE1,5:R3-14:R3|PEPTIDE1,PEPTIDE1,6:R3-11:R3$$$V2.0), the IC50 is 17400 nM.
`CC(C)C[C@@H]1NC(=O)[C@H](CCCCN)NC(=O)[C@H](CCC(=O)O)NC(=O)CNC(=O)[C@@H]2CSSC[C@H](NC1=O)C(=O)N[C@@H](Cc1c[nH]cn1)C(=O)N1CCC[C@H]1C(=O)N[C@H](C(N)=O)CSSC[C@H](NC(=O)[C@@H](NC(=O)CNC(=O)[C@H](CC(N)=O)NC(=O)[C@@H](N)Cc1ccc(O)cc1)C(C)C)C(=O)N2` [compound 195] (HELM PEPTIDE1{Y.N.G.V.C.C.G.E.K.L.C.H.P.C.[am]}$PEPTIDE1,PEPTIDE1,5:R3-14:R3|PEPTIDE1,PEPTIDE1,6:R3-11:R3$$$V2.0): the IC50 is 170000 nM.
Still for that read-out and setting: in the case of `CC(C)C[C@@H]1NC(=O)[C@H](CCCCN)NC(=O)[C@H](Cc2ccc(O)cc2)NC(=O)CNC(=O)[C@@H]2CSSC[C@H](NC1=O)C(=O)N[C@@H](Cc1c[nH]cn1)C(=O)N[C@@H](CCCCN)C(=O)N[C@H](C(N)=O)CSSC[C@H](NC(=O)[C@@H](NC(=O)CNC(=O)[C@@H](N)CC(N)=O)C(C)C)C(=O)N2` [compound 117] (HELM PEPTIDE1{N.G.V.C.C.G.Y.K.L.C.H.K.C.[am]}$PEPTIDE1,PEPTIDE1,4:R3-13:R3|PEPTIDE1,PEPTIDE1,5:R3-10:R3$$$V2.0) it was 1150 nM; in that of `CC(C)C[C@@H]1NC(=O)[C@H](CCCCN)NC(=O)[C@H](Cc2ccc(O)cc2)NC(=O)CNC(=O)[C@@H]2CSSC[C@H](NC1=O)C(=O)N[C@@H](Cc1c[nH]cn1)C(=O)N[C@@H](Cc1ccc(O)cc1)C(=O)N[C@H](C(N)=O)CSSC[C@H](NC(=O)[C@@H](NC(=O)CNC(=O)[C@@H](N)CC(N)=O)C(C)C)C(=O)N2` [compound 165], 7080 nM; in that of `CC(C)C[C@@H]1NC(=O)[C@H](CCCCN)NC(=O)[C@H](Cc2ccc(O)cc2)NC(=O)CNC(=O)[C@@H]2CSSC[C@H](NC1=O)C(=O)N[C@@H](Cc1c[nH]c3ccccc13)C(=O)N1CCC[C@H]1C(=O)N[C@H](C(N)=O)CSSC[C@H](NC(=O)[C@@H](NC(=O)CNC(=O)[C@@H](N)CC(N)=O)C(C)C)C(=O)N2` [compound 59] (HELM PEPTIDE1{N.G.V.C.C.G.Y.K.L.C.W.P.C.[am]}$PEPTIDE1,PEPTIDE1,4:R3-13:R3|PEPTIDE1,PEPTIDE1,5:R3-10:R3$$$V2.0), 174 nM.
On to `CC(C)C[C@@H]1NC(=O)[C@H](CCCCN)NC(=O)[C@H](Cc2ccc(O)cc2)NC(=O)CNC(=O)[C@@H]2CSSC[C@H](NC1=O)C(=O)N[C@@H](Cc1c[nH]c3ccccc13)C(=O)N1CCC[C@H]1C(=O)N[C@H](C(N)=O)CSSC[C@H](NC(=O)[C@@H](NC(=O)CNC(=O)[C@H](CC(N)=O)NC(=O)[C@@H](N)Cc1ccc(O)cc1)C(C)C)C(=O)N2` [compound 91], for which the IC50 is 389 nM.
Still for that read-out and setting: for `CC(C)C[C@@H]1NC(=O)[C@H](CCCCN)NC(=O)[C@H](Cc2ccc(O)cc2)NC(=O)CNC(=O)[C@@H]2CSSC[C@H](NC1=O)C(=O)N[C@@H](CCCNC(=N)N)C(=O)N1CCC[C@H]1C(=O)N[C@H](C(N)=O)CSSC[C@H](NC(=O)[C@@H](NC(=O)CNC(=O)[C@H](CC(N)=O)NC(=O)[C@@H](N)Cc1ccc(O)cc1)C(C)C)C(=O)N2` [compound 84] the value was 302 nM; for `CC(C)C[C@@H]1NC(=O)[C@H](CCCCN)NC(=O)[C@H](Cc2ccc(O)cc2)NC(=O)CNC(=O)[C@@H]2CSSC[C@H](NC1=O)C(=O)N[C@@H](Cc1c[nH]cn1)C(=O)N[C@@H](C)C(=O)N[C@H](C(N)=O)CSSC[C@H](NC(=O)[C@@H](NC(=O)CNC(=O)[C@@H](N)CC(N)=O)C(C)C)C(=O)N2` [compound 145] (HELM PEPTIDE1{N.G.V.C.C.G.Y.K.L.C.H.A.C.[am]}$PEPTIDE1,PEPTIDE1,4:R3-13:R3|PEPTIDE1,PEPTIDE1,5:R3-10:R3$$$V2.0), 2950 nM.
